According to PMC11275179, “Superior Anticancer and Antifungal Activities of New Sulfanyl-Substituted Niclosamide Derivatives” (Biomedicines, 2024):

Key:
FLO-1 EAC cells = experiment: MTT proliferation assay, FLO-1 cells; type: cell-based; details: FLO-1, 72 h, read-out: Antiproliferative activity IC50, FLO-1
Protocol: (§1) The FLO-1, SK-GT-4, and THP-1 cell lines were a gift from Dr. Shrikant Anant’s laboratory. Cells were grown in 10% fetal bovine serum (Fisher Scientific#FB12999102, Pittsburgh, PA, USA) and 1% antibiotic/antimycotic agent (Corning, Tewksbury, MA, USA) in RPMI 1640 media mixed with […] HEPES, L-glutamine (Corning, MA, USA). The cell lines were grown in a 5% CO2 incubator at 37 °C and used below 15 passages for the experiments.
(§2) The proliferation assay used a 3-(4,5-dimethylthiazol-2-yl)-2,5-diphenyltetrazolium bromide (MTT) assay. Briefly, 5000 FLO-1 and SK-GT-4 cells were counted and seeded in each well in 96-well plates. Post 24 h of incubation, EAC cells were treated with multiple concentrations (0–10 μM) of niclosamide (Cayman chemical#10649, Ann Arbor, MI, USA) and its analogs. At respective time points, 10 μL of stock MTT reagent (Millipore Sigma, Bedford, MA, USA) (3 mg/mL) was added to each well and incubated for 1–2 h under the dark at 37 °C. After incubation, the purple formazan crystals were dissolved in equal volumes of DMSO, and the absorbance of the resulting clear solutions was recorded at 570 nm using a microplate reader. A CCK-8 (Abcam, Cat no. ab228554, Burlingame, CA, USA) assay was used for the THP-1 cells. Briefly, 5000 cells were plated in every well of a 96-well plate. After 24 h of plating, THP-1 cells were treated with niclosamide and compound 3a. After the respective time point, an equal amount of CCK-8 reagent was pipetted to the wells and incubated for one hour in an incubator, and finally, the absorbance was recorded at 450 nm. The percent change in the proliferation was calculated by comparing the cell viability of the treated groups to the untreated control cells.

[1] = tested on: M. mycetomatis MM55 strain; experiment: In vitro susceptibility testing (MTS), MM55 strain; type: cell-based, Madurella mycetomatis; details: Madurella mycetomatis, MM55STRAIN
Protocol: The antifungal activity of the compounds was tested against a geographically and genetically diverse set of M. mycetomatis isolates. These included the MM55 strain from Sudan, strains I1, I3, and […] from India, strain P1 from Mali, strain SO1 from Somalia, strain Peru72012 from Peru, and strain CBS247.48 whose country of origin was unknown. All isolates were originally obtained from patients and identified and maintained in the Erasmus Medical Centre, Rotterdam, The Netherlands. In vitro susceptibility testing was performed as reported previously. The only difference was that tetrazolium compound 3-(4,5-dimethylthiazol-2-yl)-5-(3-carboxymethoxyphenyl)-2-(4-sulfophenyl)-2H-tetrazolium salt (MTS) was used as a viability dye in endpoint reading instead of 2,3-bis-(2-methoxy-4-nitro-5-sulfophenyl)-2H-tetrazolium-5-carboxanilide salt (XTT).

STAT3 = experiment: Western blot, p-STAT3 and STAT3 in EAC cells; type: cell-based; details: SK-GT-4 1.5 µM and FLO-1 0.8 µM, 72 h
Protocol: (§3) A total of 500,000 FLO-1 and SK-GT-4 cells were seeded in 10 cm^2 dishes. After 24 h, cells were incubated with a vehicle, niclosamide analog 3a (IC50 concentration), and niclosamide (equivalent dose of 3a IC50 concentration). Then, 72 h post-treatment with the compounds, the media were removed to eliminate the dead/floating cells and washed with PBS. The cells were then scraped using a cell scraper in the lysis buffer containing a protease/phosphatase inhibitor cocktail (Thermo Scientific# A32959, Rockford, IL, USA). Further cells were lysed and sonicated using a probe sonicator (Fisher Scientific Model no FB120). The resulting lysates were centrifuged at 6500 rpm and 4 °C for 10 min. […] (Thermo Scientific, Rockford, IL, USA) method was used to estimate total protein levels in the prepared cell lysates, which were diluted with lysis buffer mixed with 2× Laemmli buffer (Biorad#1610737, Hercules, CA, USA) and boiled for 5 min at […]. Equal volumes of protein (50 μg) were used on the SDS-PAGE for separation using gel electrophoresis. […]

[2] = tested on: M. mycetomatis SO1 isolate; parameters: method as in PMID 34209118; details: read-out: IC50 against the Somalian SO1 isolate; cited from earlier work
β-catenin = experiment: Western blot, active non-phospho-β-catenin in EAC cells; type: cell-based; details: SK-GT-4 1.5 µM and FLO-1 0.8 µM, 72 h
Protocol: as §3

[3] = tested on: SK-GT-4 and FLO-1 EAC cells; experiment: Colony formation assay; type: cell-based; details: 1.5 µM (SK-GT-4) and 0.8 µM (FLO-1); both EAC cell lines
Protocol: In total, 500 SK-GT-4 and FLO-1 cells were seeded in each well of 6-well plates before 24 h treatment of niclosamide analog 3a IC50 concentration and an equivalent dose of niclosamide. The media was changed after 72 h with drug-free media to remove drug exposure and allow them to grow and form colonies for 10–12 days. At the end of the experiment, the colonies were washed using PBS three times, fixed with 10% formalin solution (Fisher Scientific#23-305510, Pittsburgh, PA, USA), and stained using a 1% crystal violet (Sigma-Aldrich#C6158, St. Louis, MO, USA) solution in 10% ethanol for 15 min. The colonies were then washed with water, dried at room temperature, counted, and imaged. The number of colonies in the treated cells was compared with untreated cells.

SK-GT-4 EAC cells = experiment: MTT proliferation assay, SK-GT-4 cells; type: cell-based; details: SKGT4, 72 h, read-out: Antiproliferative activity IC50, SK-GT-4
Protocol: as §1, §2

SK-GT-4 cells = experiment: Spheroid formation assay; type: cell-based; details: 1.5 µM, SK-GT-4, 7 days
Protocol: In the ultra-low attachment plates (Corning, Lowell, MA, USA), 500 SK-GT-4 cells were seeded in each well with the spheroid media [DMEM medium supplemented with EGF (20 ng/mL), FGF (20 ng/mL), heparin (4 µg/mL), B27 (10 mL in 500 mL of 50×) (Invitrogen, Carlsbad, CA, USA), and antibiotic pen/strep (1%)]. After 24 h, spheroids were treated with 3a (IC50 dose) and an equivalent dose of niclosamide. Spheroids were counted after 7 days, and images were taken.

Structure (SMILES): O=C(Nc1ccc([N+](=O)[O-])cc1Cl)c1cc(Cl)ccc1O [Niclosamide]
- IC50 (FLO-1 EAC cells): 1050 ± 280 nM
- IC50 ([1]; read-out: Antifungal activity IC50): 15000 ± 1600 nM
- IC90 ([1]; read-out: Antifungal activity IC90): 23800 ± 100 nM
- Activating phosphorylation of STAT3 at TYR705 (Western blot) (STAT3): inhibited activating STAT3 phosphorylation but not as strongly as 3a
- IC50 [2]: 2380 nM
- Active (non-phosphorylated) β-catenin (Western blot) (β-catenin): suppressed
- Inhibition of colony formation [3]: slightly less efficient than 3a
- IC50 (SK-GT-4 EAC cells): 1770 ± 770 nM
- Inhibition of spheroid formation (SK-GT-4 cells): inhibit spheroid formation
